Columns and labels:
ECHCG [1] = assay: Pre-emergence herbicidal action against ECHCG; format: in vivo, Echinochloa crus-galli; conditions: 80 g/ha
In short: (§1)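 Herbicidal effect was assessed 3 weeks after treatment by visual comparison with untreated controls, 100% denoting dead plants. Aqueous WP or EC preparations had been applied at 600 to 800 l/ha with 0.2% wetting agent to the soil covering freshly sown seeds.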

POLCO = assay: Pre-emergence herbicidal action against POLCO; format: in vivo, Polygonum convolvulus; conditions: dosage 80 g/ha
In short: as §1

MATIN [2] = assay: Pre-emergence herbicidal action against MATIN; format: in vivo, Matricaria inodora
In short: as §1

PHBPU [3] = assay: Post-emergence herbicidal action against PHBPU; format: in vivo, Pharbitis purpurea
In short: (§2)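 Post-emergence greenhouse test; one-leaf stage, 2–3 wk post-sowing, sandy loam. Foliar spray of WP/EC in water, 600–800 l/ha, +0.2% wetting agent. Visual % action at ~3 wk vs untreated (100% = plants dead).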

ABUTH [4] = assay: Pre-emergence herbicidal action against ABUTH; format: in vivo, Abutilon theophrasti; conditions: for Pre-emergence action against ABUTH (herbicidal activity): 80 g/ha, scored visually after 3 weeks vs untreated controls (100% = plants have died, 0% = like control plants); for Pre-emergence action against ABUTH (herbicidal activity in percent): dosage 20 g/ha, scored visually after 3 weeks vs untreated controls, 100% = plants have died, 0% = like control plants
In short: as §1

ALOMY [5] = assay: Pre-emergence herbicidal action against ALOMY; format: in vivo, Alopecurus myosuroides; conditions: for Pre-emergence action against ALOMY (herbicidal activity): 80 g/ha, scored visually after 3 weeks vs untreated controls (100% = plants have died, 0% = like control plants)
In short: as §1

AMARE [6] = assay: Pre-emergence herbicidal action against AMARE; format: in vivo, Amaranthus retroflexus
In short: as §1

ECHCG [7] = assay: Post-emergence herbicidal action against ECHCG; format: in vivo, Echinochloa crus-galli
In short: as §2

VERPE [8] = assay: Post-emergence herbicidal action against VERPE; format: in vivo, Veronica persica
In short: as §2

ALOMY [9] = assay: Post-emergence herbicidal action against ALOMY; format: in vivo, Alopecurus myosuroides; conditions: dosage 20 g/ha, visual assessment about 3 weeks after treatment vs untreated controls
In short: as §2

MATIN [10] = assay: Post-emergence herbicidal action against MATIN; format: in vivo, Matricaria inodora
In short: as §2

VIOTR [11] = assay: Pre-emergence herbicidal action against VIOTR; format: in vivo, Viola tricolor
In short: as §1

AMARE [12] = assay: Post-emergence herbicidal action against AMARE; format: in vivo, Amaranthus retroflexus; conditions: 20 g/ha, visual assessment about 3 weeks after treatment, 100% = plants have died, 0% = like control plants
In short: as §2

PHBPU [13] = assay: Pre-emergence herbicidal action against PHBPU; format: in vivo, Pharbitis purpurea; conditions: dosage 80 g/ha
In short: as §1

ABUTH [14] = assay: Post-emergence herbicidal action against ABUTH; format: in vivo, Abutilon theophrasti; conditions: visual assessment about 3 weeks after treatment vs untreated controls
In short: as §2

SETVI [15] = assay: Pre-emergence herbicidal action against SETVI; format: in vivo, Setaria viridis
In short: as §1

SETVI [16] = assay: Post-emergence herbicidal action against SETVI; format: in vivo, Setaria viridis
In short: as §2

VERPE [17] = assay: Pre-emergence herbicidal action against VERPE; format: in vivo, Veronica persica
In short: as §1

VIOTR [18] = assay: Post-emergence herbicidal action against VIOTR; format: in vivo, Viola tricolor
In short: as §2

DIGSA [19] = assay: Post-emergence herbicidal action against DIGSA; format: in vivo, Digitaria sanguinalis
In short: as §2

DIGSA [20] = assay: Pre-emergence herbicidal action against DIGSA; format: in vivo, Digitaria sanguinalis
In short: as §1

[21] = 20 g/ha, scored visually after 3 weeks vs untreated controls, 100% = plants have died, 0% = like control plants
[22] = 80 g/ha, scored visually after 3 weeks vs untreated controls (100% = plants have died, 0% = like control plants)

Row | Compound | Pre-emergence action against ECHCG in % (ECHCG [1]) | Pre-emergence action against POLCO in % (POLCO) | Pre-emergence action against MATIN in % (MATIN [2]; dosage 20 g/ha) | Pre-emergence action against MATIN in % (MATIN [2]; dosage 80 g/ha) | Post-emergence action against PHBPU in % (PHBPU [3]; dosage 5 g/ha) | Post-emergence action against PHBPU in % (PHBPU [3]; dosage 20 g/ha) | Pre-emergence action against ABUTH (herbicidal activity) (ABUTH [4]) | Pre-emergence action against ABUTH (herbicidal activity in percent) (ABUTH [4]) | Pre-emergence action against ALOMY (herbicidal activity) (ALOMY [5]) | Pre-emergence action against AMARE in % (AMARE [6]; [21]) | Pre-emergence action against AMARE in % (AMARE [6]; [22]) | Post-emergence action against ECHCG in % (ECHCG [7]; dosage 20 g/ha) | Post-emergence action against VERPE in % (VERPE [8]; 20 g/ha) | Post-emergence action against ALOMY in % (ALOMY [9]) | Post-emergence action against MATIN in % (MATIN [10]; dosage 5 g/ha) | Post-emergence action against MATIN in % (MATIN [10]; dosage 20 g/ha) | Pre-emergence action against VIOTR in % (VIOTR [11]; dosage 20 g/ha) | Pre-emergence action against VIOTR in % (VIOTR [11]; dosage 80 g/ha) | Post-emergence action at 20 g/ha against AMARE in % (AMARE [12]) | Pre-emergence action against PHBPU in % (PHBPU [13]) | further results
1 | CC(NC(=O)c1c(C(F)(F)F)ccc(C(=O)Nc2nnnn2C)c1C1CC1)C1CC1 (stereo not drawn) [Example 1-292] | 90% | 90% | 100% | 100% | 80% | 80% | 100% | 100% | 90% | 100% | 100% | 80% | 90% | 80% | 80% | 80% | 90% | 100% | 100% | 80% | Pre-emergence action against ALOMY (ALOMY [5]; 20 g/ha, scored visually after 3 weeks, 100% = plants have died, 0% = like control plants): 80%; Post-emergence action against ECHCG in % (ECHCG [7]; dosage 5 g/ha): 80%; Post-emergence action against VERPE in % (VERPE [8]; 5 g/ha): 80%; Post-emergence action against ABUTH in % (ABUTH [14]; dosage 20 g/ha): 80%; Pre-emergence action against SETVI in % (SETVI [15]; dosage 80 g/ha): 100%; Post-emergence action against SETVI in % (SETVI [16]; dosage 20 g/ha): 90%; Pre-emergence action against VERPE in % (VERPE [17]; dosage 20 g/ha): 100%; Pre-emergence action against VERPE in % (VERPE [17]; dosage 80 g/ha): 100%; Post-emergence action against VIOTR in % (VIOTR [18]; 20 g/ha): 80%
2 | CCn1nnnc1NC(=O)c1ccc(C(F)(F)F)c(C(=O)NC)c1OC [Example 2-56] | 90% | 90% | 90% | 100% | 80% | 90% | 100% | 100% | 90% | 100% | 100% | 100% | 80% | 80% | 80% | 90% | 80% | 90% | 100% | 80% | Post-emergence action against DIGSA in % (DIGSA [19]; 5 g/ha): 90%; Post-emergence action against DIGSA (DIGSA [19]; 20 g/ha): 100%; Post-emergence action against ABUTH in % (ABUTH [14]; dosage 5 g/ha): 100%; Post-emergence action against ABUTH in % (ABUTH [14]; dosage 20 g/ha): 100%; Pre-emergence action against SETVI in % (SETVI [15]; dosage 20 g/ha): 100%; Pre-emergence action against SETVI in % (SETVI [15]; dosage 80 g/ha): 100%; Post-emergence action against SETVI in % (SETVI [16]; dosage 5 g/ha): 80%; Post-emergence action against SETVI in % (SETVI [16]; dosage 20 g/ha): 100%; Pre-emergence action against DIGSA in % (DIGSA [20]; dosage 20 g/ha): 100%; Pre-emergence action against DIGSA in % (DIGSA [20]; dosage 80 g/ha): 100%; Pre-emergence action against VERPE in % (VERPE [17]; dosage 20 g/ha): 80%; Pre-emergence action against VERPE in % (VERPE [17]; dosage 80 g/ha): 100%; Post-emergence action against VIOTR in % (VIOTR [18]; 5 g/ha): 80%; Post-emergence action against VIOTR in % (VIOTR [18]; 20 g/ha): 100%

— patent publication US12655116B2, “Substituted isophthalic acid diamides” (Bayer Aktiengesellschaft, priority 2020, dated 2026)
